These results are taken from patent publication US7214715B2, “Compounds to treat Alzheimer's disease” (Pharmacia & Upjohn, priority 2000, dated 2007).

The structures appear in SMILES notation.

A word on the melting point: it is the temperature, or range, at which the solid turns liquid. In the case of `CCCN(CCC)C(=O)c1cc(C(=O)N[C@@H](Cc2ccccc2)[C@H](O)CNCc2cccc(OC)c2)cc(-c2ccc(OC)cc2)c1.Cl`, the melting point fell in the range of 205 to 209 °C.
As to `CCCN(CCC)C(=O)c1cc(C(=O)N[C@@H](Cc2cc(F)cc(F)c2)[C@H](O)CNCc2cccc(OC)c2)cc(-c2ccccc2)c1.Cl`, the melting point fell in the range of 230 to 233 °C.
As for `CCCN(CCC)C(=O)c1cc(C(=O)N[C@@H](Cc2ccccc2)[C@H](O)CNCc2cccc(OC)c2)cc(-c2ccccc2)c1.Cl`, the melting point lay in the range of 214 to 219 °C.
As for `CCCN(CCC)C(=O)c1cc(C(=O)N[C@@H](Cc2ccccc2)[C@H](O)CNCc2cccc(OC)c2)cc(-c2ccsc2)c1.Cl`, the melting point was 199 to 201 °C.
